The values below come from article PMC9324262, “Selective CDK9 Inhibition by Natural Compound Toyocamycin in Cancer Cells” (Cancers, 2022).

For data set [1], the target named is T1, CDK9/Cyclin T1 (Homo sapiens, UniProt P50750).
T1 construct: purchased BPS Bioscience
The experiment in a line: in vitro kinase assay CDK9/Cyclin T1 (Kinase-Glo Plus luminescence). The format is biochemical. As to the method:
(§1) The in vitro enzymatic assays were conducted at BPS Bioscience. CDK9/Cyclin T1, CDK2/Cyclin 2A, CDK4/Cyclin D3, and CDK6/Cyclin D3 enzymatic activities were tested with an ATP Kinase-Glo Plus Luminescence kinase assay kit (Promega, V6073, Madison, WI, USA), while the CDK7/Cyclin H/MAT1 activities were tested using ADP-Glo Kinase (Promega, V6930). These assays measure kinase activity by quantifying the amount of ATP or ADP remaining in solution following a kinase reaction. The luminescent signal from the assay is correlated to the amount of ATP or ADP present and is inversely correlated to the kinase activity. The compounds were diluted to 10% DMSO and were added to the reaction so that the final concentration of DMSO was 1% in all reactions. All enzymatic reactions were conducted at 30 °C for 60 min. […] After the enzymatic reaction, the luminescence signal was measured using a BioTek Synergy 2 microplate reader (Agilent, Santa Clara, CA, USA). Kinase activity assays were performed in duplicate at each concentration and the percent of kinase activity was calculated as a ratio of luminescence intensities in the absence or in presence of the compounds. […] IC50 values were determined by the concentration causing a half-maximal percent activity (BPS Bioscience, San Diego, CA, USA).
Background: In Kinase-Glo more light means more ATP remaining.

In data set [2] the target is T2, CDK6/Cyclin D3 (Homo sapiens, UniProt Q00534).
T2 construct: purchased BPS Bioscience
T2 sequence (Q00534 whole entry): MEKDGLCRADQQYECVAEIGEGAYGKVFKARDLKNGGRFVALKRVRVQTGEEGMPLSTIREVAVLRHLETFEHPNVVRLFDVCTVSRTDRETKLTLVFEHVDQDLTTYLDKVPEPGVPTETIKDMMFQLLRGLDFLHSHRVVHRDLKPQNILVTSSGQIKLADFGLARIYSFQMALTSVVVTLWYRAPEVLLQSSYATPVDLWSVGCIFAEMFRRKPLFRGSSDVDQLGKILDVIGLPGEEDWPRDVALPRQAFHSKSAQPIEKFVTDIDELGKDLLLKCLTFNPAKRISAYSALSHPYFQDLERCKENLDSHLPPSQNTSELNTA
T2 sequence (P30281 whole entry partner): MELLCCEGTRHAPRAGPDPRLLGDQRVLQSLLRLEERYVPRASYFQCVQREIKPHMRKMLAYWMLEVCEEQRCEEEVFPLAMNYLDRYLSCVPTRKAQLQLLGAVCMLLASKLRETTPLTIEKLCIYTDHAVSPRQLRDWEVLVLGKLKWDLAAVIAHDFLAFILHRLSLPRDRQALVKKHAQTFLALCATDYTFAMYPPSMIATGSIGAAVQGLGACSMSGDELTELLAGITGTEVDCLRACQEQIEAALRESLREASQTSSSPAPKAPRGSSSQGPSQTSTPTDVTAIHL
The data set is described as follows: in vitro kinase assay CDK6/Cyclin D3 (Kinase-Glo Plus). It is filed as biochemical. As to the method:
as §1

Data set [3] has as its system Rb phosphorylation level (T826). The data set is described as follows: Western blot, Rb and phospho-Rb T826. The format is cell-based, human. The conditions noted are these: HCT116, 50–500 nM, 6 h.
The target in data set [4] is T3, CDK4/Cyclin D3 (Homo sapiens, UniProt P11802).
T3 construct: purchased BPS Bioscience
T3 sequence (P11802 whole entry): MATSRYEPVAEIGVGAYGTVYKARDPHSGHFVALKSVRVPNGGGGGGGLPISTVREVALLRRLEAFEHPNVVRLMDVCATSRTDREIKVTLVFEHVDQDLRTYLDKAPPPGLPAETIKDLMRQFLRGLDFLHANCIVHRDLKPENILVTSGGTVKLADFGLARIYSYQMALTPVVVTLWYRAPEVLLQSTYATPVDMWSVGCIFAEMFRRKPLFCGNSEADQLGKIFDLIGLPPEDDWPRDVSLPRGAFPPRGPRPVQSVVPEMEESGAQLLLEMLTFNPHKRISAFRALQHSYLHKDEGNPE
T3 sequence (P30281 whole entry partner): as the sequence (P30281 whole entry partner) above
The data set is described as follows: in vitro kinase assay CDK4/Cyclin D3 (Kinase-Glo Plus). The format is biochemical. As to the method:
as §1

Data set [5] is described as follows: cell viability by Viacount, HCT116. It is filed as cell-based. As to conditions: human, HCT116 colon cancer cells; 24 and 72 h, 50 nM to 50 µM, highest doses; read-out: cell viability relative to untreated cells. The protocol:
Cell viability was measured in YB5 and HCT166 cells using Viacount (Luminex, Austin, TX, USA, 4000-0040) on a Guava flow cytometer (Millipore, Burlington, MA, USA). Colon cancer cells were grown in 96-well plates in the same conditions as in the drug screen and treated with toyocamycin and known CDK9 inhibitor BAY1251152 (Selleckchem, Houston, TX, USA). Cell culture media of each well was collected to harvest floating dead cells and kept aside for later. Cells were trypsinized (0.25% trypsin, Gibco, Waltham, MA, USA) for 5 min at 37 °C. Cell culture media of each well was added back to their corresponding wells to stop trypsinization and mixed thoroughly to obtain a single cell suspension. Viacount solution (Luminex, Austin, TX, USA, 4000-0040, 25 μL) was added to each well, and incubated (5 min at room temperature, in the dark) prior to cell viability analysis on the Guava flow cytometer.

Usually pIC50 stands for the negative decadic logarithm of the IC50, by convention in mol/L. Usually viability stands for a per cent measure of how many cells are alive, often set against a control.

pIC50: −log10 of the molar value.

T1 sequence (P50750 whole entry): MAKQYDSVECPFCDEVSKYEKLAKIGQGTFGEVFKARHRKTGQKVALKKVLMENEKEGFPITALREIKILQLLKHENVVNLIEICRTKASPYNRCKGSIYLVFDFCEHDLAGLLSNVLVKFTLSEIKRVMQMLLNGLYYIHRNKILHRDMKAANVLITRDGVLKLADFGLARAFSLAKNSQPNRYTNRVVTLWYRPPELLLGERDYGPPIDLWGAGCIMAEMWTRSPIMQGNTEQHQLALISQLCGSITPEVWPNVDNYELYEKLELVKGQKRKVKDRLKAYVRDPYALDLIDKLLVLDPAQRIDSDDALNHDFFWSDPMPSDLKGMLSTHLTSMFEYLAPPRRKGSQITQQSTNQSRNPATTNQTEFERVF
T1 sequence (O60563 whole entry partner): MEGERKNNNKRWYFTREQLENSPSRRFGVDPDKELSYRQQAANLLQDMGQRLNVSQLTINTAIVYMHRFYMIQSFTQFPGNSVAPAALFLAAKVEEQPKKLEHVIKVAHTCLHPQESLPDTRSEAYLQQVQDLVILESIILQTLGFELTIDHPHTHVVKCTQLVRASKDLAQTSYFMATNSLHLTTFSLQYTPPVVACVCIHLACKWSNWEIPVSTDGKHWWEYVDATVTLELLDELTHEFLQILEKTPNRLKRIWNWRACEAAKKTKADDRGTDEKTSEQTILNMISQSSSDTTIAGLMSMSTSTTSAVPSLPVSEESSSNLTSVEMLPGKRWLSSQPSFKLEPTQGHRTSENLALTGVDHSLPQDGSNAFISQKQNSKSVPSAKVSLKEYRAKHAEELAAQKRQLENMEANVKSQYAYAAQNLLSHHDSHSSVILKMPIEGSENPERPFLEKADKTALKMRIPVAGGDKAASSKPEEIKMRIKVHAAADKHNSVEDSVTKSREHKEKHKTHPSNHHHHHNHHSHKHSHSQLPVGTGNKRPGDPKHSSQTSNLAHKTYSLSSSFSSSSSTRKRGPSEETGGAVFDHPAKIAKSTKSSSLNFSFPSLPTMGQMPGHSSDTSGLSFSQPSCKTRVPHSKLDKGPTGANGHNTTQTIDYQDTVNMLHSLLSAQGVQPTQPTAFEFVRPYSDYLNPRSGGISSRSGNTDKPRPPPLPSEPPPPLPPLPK

As to `N#Cc1cn([C@@H]2O[C@H](CO)[C@@H](O)[C@H]2O)c2ncnc(N)c12` [toyocamycin, 7-Deaza-7-cyanoadenosine], the negative logarithm of the IC50 (pIC50) was 7.10 in data set [1] (IC50, 10 µM ATP, 30 °C, 60 min); 7.10 in data set [1] (IC50, as quoted in docking section); less than 5.00 in data set [2]; 4.82 in data set [4]. Also, in data set [3], the “Rb and its phosphorylated form (T826)” value is listed as “did not change”. The viability in data set [5] is greater than 50%.
